Entries after “also recorded” stand apart in the source; their conditions may differ.

A short description of data set [1]: Release of nitric oxide at acidic condition like artificial stomach. Type of data set: physicochemical. To be noted: HCl solution with NaCl and KCl; Sievers Nitric Oxide Analyzer 280i. The procedure:
(§1) To figure the optimum fermentation condition allowing fixating and stabilization of the nitric oxide metabolites at the highest level, production amount of nitric oxide metabolites was examined depending on various fermentation temperatures, dissolved oxygen concentrations (level), and chemical oxygen demands. For measuring the nitric oxide metabolites, amount of nitric oxide was measured under acidic condition and also reducing condition using a chemical method and calculation was made for the nitric oxide metabolites. As for the acidic condition, a condition mimicking human stomach was created using hydrochloride (HCl) solution with sodium chloride (NaCl) and potassium chloride (KCl), and then nitric oxide metabolites were released in the solution. […] Thereafter, by using a nitric oxide detector (Sievers Nitric Oxide Analyzer 280i), amount of the nitric oxide metabolites fixated in fermented substance was measured.
(§2) As a test material, a fermented substance using garlic, cabbage, onion, bean sprouts, lettuce, soybean, or cricket, and sodium nitrite were used. […] As a result, from all samples other than sodium nitrite (residual nitrite ion concentration of 5 mg/L), nitrite ion was not detected.

The test system of data set [2] is rat injected with DOCA (high blood pressure). Kind of data set: Blood pressure-lowering effect in test animal of high blood pressure (Example 9-2). Type of data set: in vivo, Sprague Dawley (SD) rat. Particulars: 15-120 minutes; NaNO2 oral 18.6 mg/kg, test sample rectal 12.5 mg/kg as NO2-; once a day for 4 weeks. The procedure:
The acclimated SD rat (8-week-old) was intraperitoneally injected with DOCA (deoxycorticosterone acetate; […] To determine an occurrence of high blood pressure, blood pressure was measured by using tail-cuff plethysmography (Muromachi Kikai, Japan), and animals with systolic blood pressure of at least 140 mmHg were selected and used for the test. When various plants rich in polyphenol are used, it is possible to obtain fermentation liquid containing both nitric oxide metabolites and polyphenol. In this example, fermented liquid obtained by fermenting Korean garlic was used for the test after concentration. Content of the nitric oxide metabolites in garlic fermentation concentrate which has been obtained after concentration was adjusted such that it is 200 ppm or higher in terms of NO2^−. It is preferable that the concentration step is carried out for 24 hours to 48 hours at temperature of 20° C. to 30° C. and stirring speed of 100 rpm to 300 rpm.

The test system of data set [3] is test animal of diabetes (STZ). Kind of data set: Blood markers of diabetes and diabetes complications after 4 weeks of administration (Example 9-4). The data set is classed as in vivo, C57BL/6 mouse. To be noted: 4 weeks once a day, NaNO2 oral, test sample rectal. The method, then:
(§3) As a test animal, 4-week-old male C57BL/6 mouse was obtained from Samtako (South Korea) and used. The test animals were acclimated for 1 week under the same breeding chamber condition as Example 5 above. The acclimated C57BL/6 mouse was then intraperitoneally injected once with STZ (streptozotocin; Sigma-Aldrich, USA) solution, which has been prepared at concentration of 120 mg/kg in 0.1 M citrate buffer (pH 4.5), to induce diabetes. Two weeks after administering STZ, the mouse was fasted for 16 hours and blood was taken from tail vein of the test animal to measure fasting blood glucose using a simple blood glucose meter (Glucotrend, Roche, Germany). […] Body weight, feed intake amount, and blood glucose level were measured twice a week. After one week, blood glucose level was measured again and test animals which maintained fasting blood glucose of not less than 200 mg/dL were selected and used for the test.
(§4) In this example, fermented liquid obtained by fermenting Korean garlic was used for the test after concentration. Content of the nitric oxide metabolites in garlic fermentation concentrate which has been obtained after concentration was adjusted such that it is 200 ppm or higher in terms of NO2^−. It is preferable that the concentration step is carried out for 24 hours to 48 hours at temperature of 20° C. to 30° C. and stirring speed of 100 rpm to 300 rpm.
To the test animal of diabetes prepared in Example 6, NaNO2 was administered orally once a day for 4 weeks or the test sample (garlic fermentation concentrate obtained by concentration) was administered rectally also once a day for 4 weeks. On the last day of test, blood was collected from all test animals to complete the test. After that, content of blood glucose, glycated hemoglobin, insulin, creatinine, and urea nitrogen in the collected blood were measured by using a diagnostic kit. Specifically, the blood glucose, glycated hemoglobin, and insulin of Table 3 were used for determining and analyzing the anti-diabetes effect, while creatinine and urea nitrogen of Table 3 were used for determining and analyzing the effect of alleviating the symptoms of diabetes complications. A decrease in kidney function is one of the diabetes complications, and creatinine and urea nitrogen are a clinical biomarker for measuring the kidney function.

For data set [4] the following is noted: samples collected after measurement at acidic or reduction condition. The procedure:
as §2

Data set [5] is described as follows: Release of nitric oxide at reducing condition mimicking the intestinal condition of human body. The data set is classed as physicochemical. To be noted: vitamin C and sodium chloride in phosphate buffer solution. The procedure:
as §1, §2

Data set [6] concerns mouse injected with STZ (diabetes). Briefly: Oral glucose tolerance test for test animal of diabetes (Example 9-3). Type of data set: in vivo, C57BL/6 mouse. Particulars: glucose 2 g/kg; 15-120 minutes; NaNO2 oral 18.6 mg/kg, test sample rectal 12.5 mg/kg; once a day for 4 weeks. The procedure:
as §3, §4

Data set [7] concerns mouse with DNFB-induced atopic dermatitis. Kind of data set: DNFB-induced atopic dermatitis mouse: visual examination, ear swelling, histopathology. The data set is classed as in vivo, Balb/c mouse. Particulars: histopathological test, H&E, last day of test; control DNFB + DW 843.17 ± 55.22. The method, then:
As a test animal, 5-week old male Balb/c mouse was obtained from Samtako (South Korea) and, after acclimatization for 1 week, used for the test. The breeding chamber for test animal has controlled light and darkness cycle with an interval of 12 hours, and temperature was maintained at 23±2° C. and humidity was maintained at 50 to 60%.
Cabbage fermentation extract was used as a test sample of the test, and, specifically, fermented cabbage which has been prepared according to the method of the present invention was frozen at −80° C. and freeze-dried for 5 days (PVTFD10R, Ilshin Lab, Korea). Thus-obtained powder was dissolved in distilled water and used as a test sample. […]
Anti-atopic effect was analyzed based on visual examination, ear swelling, measurement of interferon γ in blood serum, and histopathological examination. […]

For `O=N[O-].[Na+]` [NaNO2, sodium nitrite], the “release amount of nitric oxide at acidic condition like artificial stomach” value in data set [1] is 130.7 mg/L. In addition, the “change in blood pressure over time” value in data set [2] is “rapid decrease in blood pressure; also recorded: after the sharp decrease in initial blood pressure, the blood pressure has dramatically increased again”. In addition, in data set [3] (control group 0.25 ± 0.05), the Creatinine was determined as 0.18 ± 0.03 mg/dL. For the same compound, the Glycated hemoglobin in data set [3] (control group 7.5 ± 0.3) stood at 6.2 ± 0.3%. Further, the Urea nitrogen in data set [3] (control group 43.2 ± 0.8) amounted to 37.1 ± 0.5 mg/dL. Further, the Insulin in data set [3] (control group 80.0 ± 10.7) was determined as 150.0 ± 9.5 ng/mL. Further, the Fasting blood glucose in data set [3] (control group 480.0 ± 6.0, normal 106.0 ± 5.0) amounted to 320.0 ± 11.0 mg/dL. Besides, the “residual nitrite ion concentration” value in data set [4] is 5 mg/L. Further, in data set [5], the “release amount of nitric oxide at reducing condition mimicking the intestinal condition of human body” value is recorded as 488.4 mg/L. The “blood glucose level in OGTT” value in data set [6] was “rapid decrease in blood glucose level; also recorded: no further decrease in the blood glucose level”.
For citrate [DNFB + CA], the Ear thickness in data set [7] was 593.17 ± 71.27 μm.
Regarding nitrite [DNFB + N], in data set [7], the Ear thickness was determined as 463.67 ± 77.08 μm.

The values are drawn from patent US12685754B2, “Method of fixating and stabilizing nitric oxide metabolites through fermentation of nitrogen-containing natural substance” (priority 2019, dated 2026).
